Experimental findings from patent publication US11834453B2, “Substituted pyrimido[5,4-d]pyrimidines as HER2 inhibitors” (Array BioPharma Inc., priority 2020, dated 2023) are described below.

Like-named read-outs stand apart in the source and are kept apart here. A value given as a limit tells only on which side of the number the result lay.

Data set [1] addresses ErbB2 insYVMA (HER2-YVMA, SEQ ID NO: 2) (Homo sapiens, UniProt P04626, INS775YVMA/P1170A). The data set is described as follows: biochemical. To be noted: ErbB2 insYVMA enzyme assay.
A further data set has as its target ErbB2 WT (Homo sapiens (Human), UniProt P04626). The data set can be described thus: ErbB enzyme assay (CisBio HTRF KinEASE-TK), Assay 2. It counts as biochemical. In outline: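 Readout is HTRF KinEASE-TK, using Sa-XL665 and cryptate antibody for 1 h at 22 °C, as percent of control between DMSO-only (100) and pre-quenched (0) reactions. The kinase reaction runs 30 min at 22 °C with 1 mM ATP and 250 nM biotinylated TK substrate, in HEPES pH 7.4 with MgCl2 and 2% DMSO.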
(In general: In TR-FRET formats the signal depends on donor and acceptor labels being close together.)

Another data set deals with EGFR (Homo sapiens (Human), UniProt P00533). The data set is described as follows: ErbB enzyme assay (CisBio HTRF KinEASE-TK), Assay 3. The format is biochemical. The essentials: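 IC50 was taken where a 4-parameter logistic fit crossed 50 percent of control (DMSO 100, pre-quenched 0), read by ratiometric HTRF. Reactions ran 30 min at 22 °C with 1 mM ATP and 250 nM TK-substrate biotin in pH 7.4 HEPES buffer with MgCl2, Triton X-100 and 2% DMSO.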
Chain of EGFR (P00533 25-1210): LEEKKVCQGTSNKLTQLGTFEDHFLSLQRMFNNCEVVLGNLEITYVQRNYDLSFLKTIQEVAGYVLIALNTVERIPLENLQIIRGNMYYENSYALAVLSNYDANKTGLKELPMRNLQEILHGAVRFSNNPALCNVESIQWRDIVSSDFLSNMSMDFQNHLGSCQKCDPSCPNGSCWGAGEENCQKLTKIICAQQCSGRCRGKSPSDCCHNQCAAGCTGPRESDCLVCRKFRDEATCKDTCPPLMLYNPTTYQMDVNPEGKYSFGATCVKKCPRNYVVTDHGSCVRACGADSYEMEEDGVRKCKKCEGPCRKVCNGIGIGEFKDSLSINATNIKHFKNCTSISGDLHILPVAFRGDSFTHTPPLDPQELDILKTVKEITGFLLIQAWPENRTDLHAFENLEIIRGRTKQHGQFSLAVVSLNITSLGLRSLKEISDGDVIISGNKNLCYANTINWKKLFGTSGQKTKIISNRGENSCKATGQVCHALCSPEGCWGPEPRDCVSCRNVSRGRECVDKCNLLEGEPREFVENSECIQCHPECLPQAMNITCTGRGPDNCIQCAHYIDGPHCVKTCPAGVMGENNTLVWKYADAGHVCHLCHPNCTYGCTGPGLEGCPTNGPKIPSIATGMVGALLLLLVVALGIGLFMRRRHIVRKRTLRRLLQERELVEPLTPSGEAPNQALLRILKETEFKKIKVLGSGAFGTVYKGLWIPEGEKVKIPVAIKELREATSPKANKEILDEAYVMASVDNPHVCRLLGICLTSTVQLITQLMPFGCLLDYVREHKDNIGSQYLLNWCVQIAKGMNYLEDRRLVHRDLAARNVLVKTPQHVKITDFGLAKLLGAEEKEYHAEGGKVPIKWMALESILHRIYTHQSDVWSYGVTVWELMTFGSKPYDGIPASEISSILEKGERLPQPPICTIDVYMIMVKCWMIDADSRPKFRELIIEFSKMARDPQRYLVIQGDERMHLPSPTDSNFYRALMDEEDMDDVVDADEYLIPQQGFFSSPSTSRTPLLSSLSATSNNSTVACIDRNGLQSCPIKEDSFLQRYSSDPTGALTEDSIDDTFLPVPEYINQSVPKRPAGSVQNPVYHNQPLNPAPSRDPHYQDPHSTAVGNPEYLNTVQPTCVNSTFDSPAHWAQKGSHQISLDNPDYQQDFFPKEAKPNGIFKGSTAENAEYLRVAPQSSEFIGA

For data set [2], the target named is ErbB2 with Exon 20 YVMA insertion (HER2-YVMA) (Homo sapiens (Human), UniProt P04626, INS775YVMA). The data set is described as follows: Cellular phosphorylation assay, constitutive ErbB2 phosphorylation (Y1196) in engineered NIH 3T3 cells, Assay 4. The format is cell-based. In outline:
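In-cell Western in NIH 3T3 cells carrying ErbB2 exon 20 YVMA insertion, with no ligand stimulation. One hour compound exposure at 37 °C before fixation and anti-pY1196 plus GAPDH staining with dual-wavelength fluorescence. IC50 derived after GAPDH normalization.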

Data set [3] has as its target T1, MDR1 (P-gp) (Homo sapiens (Human), UniProt P08183). To be noted: dog, MDCK-MDR1, 2 h, 1 μM.
Data set [4] has as its target T2, BCRP (Homo sapiens (Human), UniProt Q9UNQ0). To be noted: dog, 2 h, 1 μM.
Experimental: (§1) BCRP transfected MDCKII cells (Assay 8) and BCRP transfected MDCKII canine Mdr1 knockout cells (Assay 9) were cultured and plated according to manufacturer's recommendations.
(§2) Both positive and negative controls were used to assess functionality of P-gp or BCRP efflux in the assays. Stock solutions for assay controls and the test article were prepared in DMSO for final test concentration of 1 μM. Final organic concentration in the assay was 1%. All dosing solutions contained 10 μM lucifer yellow to monitor MDCKII cell monolayer integrity.
(§3) For the apical to basolateral determination (A to B), 75 μL of the test article in transport buffer were added to the apical side of the individual transwells and 250 μL of basolateral media, without compound or lucifer yellow, were added to each well. For the basolateral to apical determination (B to A), 250 μL of test article in transport buffer were added to each well and 75 μL transport buffer, without compound or lucifer yellow, were added to each transwell. All tests were performed in triplicate, and each compound was tested for both apical to basolateral and basolateral to apical transport. The plates were incubated for 2 hours on a Lab-Line Instruments Titer Orbital Shaker (VWR, West Chester, PA) at 50 rpm and 37° C. with 5% CO2. All culture plates were removed from the incubator, 50 μL of media were removed from the apical and basolateral portion of each well, and added to 150 μL of 1 μM labetalol in 2:1 acetonitrile (ACN): H2O, v/v.
(§4) The plates were read using a Molecular Devices (Sunnyvale, CA) Gemini Fluorometer to evaluate the lucifer yellow concentrations at excitation/emission wavelengths of 425/535 nm. […] The plates were sealed, and the contents of each well analyzed by LC MS/MS. The compound concentrations were determined from the ratio of the peak areas of the compound to the internal standard (labetalol) in comparison to the dosing solution.
(§5) A MDS Sciex API 4000 (Applied Biosystems, Foster City, CA) mass spectrometer was used for detection of the analytes in the ion spray positive mode. Analyte responses were measured by multiple reaction monitoring (“MRM”) of transitions unique to each compound (the protonated precursor ion and selected product ions for each test article and m/z 329 to m/z 162 for labetalol, the internal standard.
(§6) The total run time, including re-equilibration, for a single injection was 1.2 minutes. […] The total run time, including re-equilibration, for a single injection was 0.61 minutes.
(§7) An efflux ratio is calculated from the mean apical to basolateral (A-B) Papp data and basolateral to apical (B-A) Papp data: Efflux ratio=Papp(B−A)/Papp(A−B)
Another data set deals with EGFR wild type (EGFR WT) (Homo sapiens (Human), UniProt P00533). The data set is described as follows: Cellular phosphorylation assay, EGF-stimulated EGFR phosphorylation in engineered NIH 3T3 cells, Phospho-EGFR DuoSet IC ELISA, Assay 5. It counts as cell-based. In outline: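 Phospho-EGFR ELISA on lysates of engineered NIH 3T3 EGFR WT cells, IC50 derived from concentration curves. Cells plated at 20,000/well overnight, given compound dilutions 1 h at 37 °C, then rEGF 100 ng/ml for a further 10 min before lysis.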
Background: ELISA stands for enzyme-linked immunosorbent assay.

In data set [5] the target is T1, MDR1 (P-gp). The note with it: pig, LLC-PK1, 2 h, 1 μM.
Experimental: (§8) Both MDR1 transfected LLC-PK1 (Assay 6) and MDR1 transfected MDCKII canine Mdr1 knockout cells (Assay 7) were cultured and plated according to manufacturer's recommendations with the exception that the passage media for the MDR1 transfected LLC-PK1 cell line contained only 2% fetal bovine serum so as to extend passage time out to seven days.
as §2, §3
(§9) The plates were read using a Molecular Devices (Sunnyvale, CA) Gemini Fluorometer to evaluate the lucifer yellow concentrations at excitation/emission wavelengths of 425/535 nm. These values were accepted when found to be below 2% for apical to basolateral and 5% basolateral to apical flux across the MDR1-transfected LLC-PK1 or BCRP-transfected MDCKII cell monolayers. The plates were sealed, and the contents of each well analyzed by LC MS/MS. The compound concentrations were determined from the ratio of the peak areas of the compound to the internal standard (labetalol) in comparison to the dosing solution.
as §5, §6, §7
For data set [6], the target named is T2, BCRP. The data set can be described thus: BCRP transfected MDCKII permeability/efflux, Assay 8. It counts as in vitro ADME. To be noted: dog, efflux ratio Papp(B-A)/Papp(A-B), read-out: Assay 8 Pe Ratio.
Experimental: as §1, §2, §3, §4, §5, §6, §7
For data set [7], the target named is T1, MDR1 (P-gp). The data set is described as follows: MDR1 transfected LLC-PK1 permeability/efflux, Assay 6. The note with it: pig, LLC-PK1, Assay 6 Pe Ratio, efflux ratio Papp(B-A)/Papp(A-B), MDR1 transfected LLC-PK1.
Experimental: as §8, §2, §3, §9, §5, §6, §7

Chain of ErbB2 WT (P04626 23-1255): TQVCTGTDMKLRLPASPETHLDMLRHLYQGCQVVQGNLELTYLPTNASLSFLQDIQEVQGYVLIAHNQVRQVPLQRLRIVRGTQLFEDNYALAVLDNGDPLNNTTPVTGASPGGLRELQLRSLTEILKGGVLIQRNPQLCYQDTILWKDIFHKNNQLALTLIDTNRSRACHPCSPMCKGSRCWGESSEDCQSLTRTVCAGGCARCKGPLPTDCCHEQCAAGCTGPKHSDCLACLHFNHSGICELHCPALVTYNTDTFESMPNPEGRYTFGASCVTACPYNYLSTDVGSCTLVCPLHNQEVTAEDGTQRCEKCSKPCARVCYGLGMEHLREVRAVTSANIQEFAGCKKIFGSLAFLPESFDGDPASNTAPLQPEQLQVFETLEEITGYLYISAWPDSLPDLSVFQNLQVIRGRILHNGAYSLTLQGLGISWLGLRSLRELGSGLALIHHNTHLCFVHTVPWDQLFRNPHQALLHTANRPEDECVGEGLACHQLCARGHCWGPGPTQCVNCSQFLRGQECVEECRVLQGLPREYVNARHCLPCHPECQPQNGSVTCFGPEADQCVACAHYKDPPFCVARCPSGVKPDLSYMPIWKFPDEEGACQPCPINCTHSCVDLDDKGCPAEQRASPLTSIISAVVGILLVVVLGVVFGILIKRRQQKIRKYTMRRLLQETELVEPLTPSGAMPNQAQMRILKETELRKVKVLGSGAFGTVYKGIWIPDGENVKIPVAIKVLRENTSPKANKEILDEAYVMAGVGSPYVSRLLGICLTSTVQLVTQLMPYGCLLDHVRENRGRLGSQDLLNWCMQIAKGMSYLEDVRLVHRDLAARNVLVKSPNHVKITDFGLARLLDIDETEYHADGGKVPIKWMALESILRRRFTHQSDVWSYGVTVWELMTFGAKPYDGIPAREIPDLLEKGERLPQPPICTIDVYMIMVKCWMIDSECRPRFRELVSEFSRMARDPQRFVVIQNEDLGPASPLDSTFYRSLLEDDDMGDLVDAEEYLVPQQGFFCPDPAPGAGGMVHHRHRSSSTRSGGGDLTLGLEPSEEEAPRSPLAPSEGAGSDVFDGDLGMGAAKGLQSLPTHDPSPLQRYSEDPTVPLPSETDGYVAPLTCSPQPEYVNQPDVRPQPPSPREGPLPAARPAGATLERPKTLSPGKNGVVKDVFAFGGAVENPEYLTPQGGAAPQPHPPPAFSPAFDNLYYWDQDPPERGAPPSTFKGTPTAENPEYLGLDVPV
T1 sequence (P08183 whole entry): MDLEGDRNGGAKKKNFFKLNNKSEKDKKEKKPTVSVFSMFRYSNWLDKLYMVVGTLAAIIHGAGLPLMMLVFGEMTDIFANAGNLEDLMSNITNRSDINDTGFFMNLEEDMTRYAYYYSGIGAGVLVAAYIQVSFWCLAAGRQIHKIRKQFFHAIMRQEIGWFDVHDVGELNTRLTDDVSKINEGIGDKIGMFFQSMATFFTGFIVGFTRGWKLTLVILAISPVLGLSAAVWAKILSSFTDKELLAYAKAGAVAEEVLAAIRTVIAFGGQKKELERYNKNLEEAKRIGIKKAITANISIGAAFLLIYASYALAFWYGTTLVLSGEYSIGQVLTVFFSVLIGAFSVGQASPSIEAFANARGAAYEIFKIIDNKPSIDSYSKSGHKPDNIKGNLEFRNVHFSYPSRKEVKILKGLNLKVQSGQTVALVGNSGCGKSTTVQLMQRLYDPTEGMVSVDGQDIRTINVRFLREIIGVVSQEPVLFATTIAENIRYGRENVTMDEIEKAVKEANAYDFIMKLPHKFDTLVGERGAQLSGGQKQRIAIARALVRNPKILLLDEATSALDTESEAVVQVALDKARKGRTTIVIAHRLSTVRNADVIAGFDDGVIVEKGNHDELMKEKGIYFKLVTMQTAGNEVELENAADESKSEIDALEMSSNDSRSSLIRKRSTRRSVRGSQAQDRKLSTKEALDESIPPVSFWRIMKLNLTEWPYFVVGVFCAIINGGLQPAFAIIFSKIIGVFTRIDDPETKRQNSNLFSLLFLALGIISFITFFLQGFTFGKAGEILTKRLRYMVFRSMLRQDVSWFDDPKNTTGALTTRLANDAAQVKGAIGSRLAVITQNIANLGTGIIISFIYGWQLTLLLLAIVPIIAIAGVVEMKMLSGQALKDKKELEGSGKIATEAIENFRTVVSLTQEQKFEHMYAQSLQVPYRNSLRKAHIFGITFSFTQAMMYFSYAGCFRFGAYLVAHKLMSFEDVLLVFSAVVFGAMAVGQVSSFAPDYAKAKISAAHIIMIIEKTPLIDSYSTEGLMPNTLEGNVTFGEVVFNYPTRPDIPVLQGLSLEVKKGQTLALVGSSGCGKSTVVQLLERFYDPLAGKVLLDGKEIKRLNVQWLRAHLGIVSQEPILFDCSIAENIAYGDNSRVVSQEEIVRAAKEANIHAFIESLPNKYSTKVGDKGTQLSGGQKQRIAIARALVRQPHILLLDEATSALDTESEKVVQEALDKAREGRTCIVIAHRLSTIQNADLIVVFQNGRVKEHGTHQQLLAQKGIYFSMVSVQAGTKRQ
T2 sequence (Q9UNQ0 whole entry): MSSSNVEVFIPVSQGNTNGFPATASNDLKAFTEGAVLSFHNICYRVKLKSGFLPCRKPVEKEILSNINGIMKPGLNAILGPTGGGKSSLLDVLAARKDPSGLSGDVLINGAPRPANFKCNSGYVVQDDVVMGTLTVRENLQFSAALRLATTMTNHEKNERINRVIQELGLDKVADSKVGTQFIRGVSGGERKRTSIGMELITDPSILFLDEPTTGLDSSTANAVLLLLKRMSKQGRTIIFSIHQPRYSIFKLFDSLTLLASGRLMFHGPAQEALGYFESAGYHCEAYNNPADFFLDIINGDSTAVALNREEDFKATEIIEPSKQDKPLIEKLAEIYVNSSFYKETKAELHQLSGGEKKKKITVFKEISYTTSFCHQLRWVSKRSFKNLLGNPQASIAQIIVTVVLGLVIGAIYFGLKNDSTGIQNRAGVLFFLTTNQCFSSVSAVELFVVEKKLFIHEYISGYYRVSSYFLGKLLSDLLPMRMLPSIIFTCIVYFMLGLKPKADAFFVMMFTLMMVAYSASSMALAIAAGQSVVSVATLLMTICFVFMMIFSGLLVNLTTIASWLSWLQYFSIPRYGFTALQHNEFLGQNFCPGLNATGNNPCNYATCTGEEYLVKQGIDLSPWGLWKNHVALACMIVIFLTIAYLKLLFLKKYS

As for `Cc1cc(Nc2ncnc3cnc(N4[C@H]5CC[C@@H]4[C@H](O)C5)nc23)ccc1Oc1ccc2c(c1)ncn2C` (racemic) [Example 104, ±(1R,2R,4S)-7-(8-((3-methyl-4-((1-methyl-1H-benzo[d]imidazol-5-yl)oxy)phenyl)amino)pyrimido[5,4-d]pyrimidin-2-yl)-7-azabicyclo[2.2.1]heptan-2-ol], the IC50 was 18.6 nM in data set [1] (read-out: Assay 1 IC50); 0.0182 µM at ErbB2 WT; 4.68 µM against EGFR; 0.0318 µM in [2]; 5 µM at EGFR wild type (EGFR WT). Moreover, the “Assay 7 Pe Ratio” value at MDR1 (P-gp) [3] amounted to 1.4. The “Assay 9 Pe Ratio” value at BCRP [4] was determined as 16.0.

With `Cc1cc(Nc2ncnc3cnc(N4[C@H]5CC[C@@H]4[C@@H](O)C5)nc23)ccc1Oc1ccc2c(c1)ncn2C` (racemic) [Example 105, ±(1R,2S,4S)-7-(8-((3-methyl-4-((1-methyl-1H-benzo[d]imidazol-5-yl)oxy)phenyl)amino)pyrimido[5,4-d]pyrimidin-2-yl)-7-azabicyclo[2.2.1]heptan-2-ol], the half-inhibitory concentration (IC50) in data set [1] (read-out: Assay 1 IC50) is 56.7 nM; against ErbB2 WT, 0.0485 µM; at EGFR, 10 µM; in data set [2], 0.039 µM; against EGFR wild type (EGFR WT), 5 µM. Besides, the “Assay 7 Pe Ratio” value on MDR1 (P-gp) [3] amounted to 2.0. At BCRP [4], the “Assay 9 Pe Ratio” value is 8.6.

Turning to `Cc1cc(Nc2ncnc3cnc(N4CCC45CCOC5)nc23)ccc1Oc1ccc2c(c1)ncn2C` (racemic) [Example 111, rac-(R)—N-(3-methyl-4-((1-methyl-1H-benzo[c]imidazol-5-yl)oxy)phenyl)-6-(6-oxa-1-azaspiro[3.4]octan-1-yl)pyrimido[5,4-d]pyrimidin-4-amine], the 50% inhibitory concentration (IC50) worked out at 28.2 nM in [1] (read-out: Assay 1 IC50); 0.024 µM on ErbB2 WT; 3.53 µM against EGFR; 0.013 µM in data set [2]; 5 µM at EGFR wild type (EGFR WT). Besides, the “Assay 6 Pe Ratio” value on MDR1 (P-gp) [5] is 1.3. In addition, on MDR1 (P-gp) [3], the “Assay 7 Pe Ratio” value was 1.7. Further, the “Assay 9 Pe Ratio” value on BCRP [4] turned out to be 1.6.

Regarding `Cc1cc(Nc2ncnc3cnc(NC4CCC4)nc23)ccc1Oc1ccc2c(c1)ncn2C` [Example 14, N2-cyclobutyl-N8-(3-methyl-4-((1-methyl-1H-benzo[d]imidazol-5-yl)oxy)phenyl)pyrimido[5,4-d]pyrimidine-2,8-diamine], the half-maximal inhibitory concentration (IC50) was 56.2 nM in [1] (read-out: Assay 1 IC50); 0.0859 µM against ErbB2 WT; not below 10 µM against EGFR; 0.037 µM in data set [2]; not below 5 µM against EGFR wild type (EGFR WT). Further, the efflux ratio at 2 h, 1 μM is 0.9 on BCRP [6] and 1.3 at MDR1 (P-gp) [7].

For `Cc1cc(Nc2ncnc3cnc(NCC4CC4)nc23)ccc1Oc1ccc2c(c1)ncn2C` [Example 20, N2-(cyclopropylmethyl)-N8-(3-methyl-4-((1-methyl-1H-benzo[d]imidazol-5-yl)oxy)phenyl)pyrimido[5,4-d]pyrimidine-2,8-diamine], the IC50 is 66.1 nM in [1] (read-out: Assay 1 IC50); 0.131 µM against ErbB2 WT; not below 10 µM against EGFR; 0.0448 µM in data set [2]; not below 5 µM against EGFR wild type (EGFR WT). Further, the results for the efflux ratio at 2 h, 1 μM on BCRP [6] and at MDR1 (P-gp) [7] were 0.7 and 1.9, respectively.

As to `Cc1cc(Nc2ncnc3cnc(N(C)C)nc23)ccc1Oc1ccc2csnc2c1` [Example 49, N8-(4-(benzo[c]isothiazol-6-yloxy)-3-methylphenyl)-N2,N2-dimethylpyrimido[5,4-d]pyrimidine-2,8-diamine 2,2,2-trifluoroacetate], the concentration for half-maximal inhibition (IC50) was 55.3 nM in data set [1] (read-out: Assay 1 IC50); 0.241 µM at ErbB2 WT; 2.25 µM against EGFR; 0.132 µM in data set [2]; not below 5 µM against EGFR wild type (EGFR WT). Also, the values for the efflux ratio at 2 h, 1 μM on BCRP [6] and on MDR1 (P-gp) [7] were 5.1 and 1.7, respectively.

`Cc1cc(Nc2ncnc3cnc(N4CCOCC4)nc23)ccc1Oc1ccc2scnc2c1.O=C(O)C(F)(F)F` [Example 82, N-(4-(benzo[d]thiazol-5-yloxy)-3-methylphenyl)-6-morpholinopyrimido[5,4-d]pyrimidin-4-amine 2,2,2-trifluoroacetate]: the IC50 in data set [1] (Assay 1 IC50 (nM)) is 47 nM; on ErbB2 WT, 0.204 µM; against EGFR it was 1.22 µM; in [2], 0.0547 µM; against EGFR wild type (EGFR WT), not below 5 µM. Besides, the efflux ratio at 2 h, 1 μM on BCRP [6] was determined as 1; on MDR1 (P-gp) [7], 1.3.

Consider `Cc1c(Oc2ccc3c(c2)ncn3C)ccc(Nc2ncnc3cnc(N4CCOCC4)nc23)c1F` [Example 263], for which the IC50 in data set [1] (read-out: Assay 1 IC50) was 57.6 nM; against ErbB2 WT, 0.137 µM; against EGFR, not below 10 µM; in data set [2] it was 0.0161 µM; at EGFR wild type (EGFR WT), not below 5 µM. Moreover, the results for the efflux ratio at 2 h, 1 μM on BCRP [6] and at MDR1 (P-gp) [7] were 1.5 and 0.9, respectively.

`Cc1cc(Nc2ncnc3cnc(NC4(C)CC4)nc23)ccc1Oc1ccc2c(c1)ncn2C` [Example 268]: the IC50 in [1] (read-out: Assay 1 IC50) is 82 nM; on ErbB2 WT, 0.0937 µM; at EGFR it was not below 10 µM; in data set [2] it was 0.039 µM; on EGFR wild type (EGFR WT) it was not below 5 µM. The efflux ratio at 2 h, 1 μM at BCRP [6] is 1.1; at MDR1 (P-gp) [7] it was 1.5.

Take `Cc1cc(Nc2ncnc3cnc(N(C)C)nc23)ccc1Oc1ccc2scnc2c1` [Example 271]: the IC50 was 42.2 nM in data set [1] (read-out: Assay 1 IC50); 0.145 µM against ErbB2 WT; 1.26 µM at EGFR; 0.0309 µM in data set [2]; 3.08 µM on EGFR wild type (EGFR WT). The values for the efflux ratio at 2 h, 1 μM on BCRP [6] and at MDR1 (P-gp) [7] were 0.9 and 1.8, respectively.

As a reminder, the IC50 is the point on the concentration scale where inhibition reaches its midpoint.
